Assay results taken from patent US9938258B2 (Karyopharm Therapeutics Inc., priority 2012, dated 2018).
pIC50: −log10 of the molar value.

Key:
MS751 cells = assay: MTT cell proliferation assay, MS751; format: cell-based, human; conditions: Homo sapiens, MS751, MS751 cells, approximately 64-72 hours incubation; read-out: MTT Assay IC50, MS751
Summary of the method: (§1)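 Seeding 5,000-10,000 cells/well, overnight attachment; 8 concs, 1 nM–30 μM. MTT ~4 h, formazan solubilized, OD 490 nm. % inhibition vs negative control, mostly duplicate, mean±SE.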

Z138 cells = assay: MTT cell proliferation assay, Z138; format: cell-based; conditions: Homo sapiens, Z-138, Z138 cells, approximately 64-72 hours incubation; read-out: MTT Assay IC50, Z138
Summary of the method: as §1

3T3 cells = assay: MTT cell proliferation assay, 3T3; format: cell-based, mouse; conditions: Mus musculus, NIH3T3, 3T3 cells, approximately 64-72 hours incubation; read-out: MTT Assay IC50, 3T3
Summary of the method: as §1

[1] = test system: PAK4 interactors and downstream proteins; assay: Immunoblots of PAK4 interactors and downstream proteins in U2OS cells; format: cell-based, human; conditions: 0.5 μM or 5 μM, 72 hours
Description: Immunoblots were used to measure the effects of exemplary compounds on protein steady-state levels and phophorylation of PAK4 interactor and downstream proteins. Specifically, U2OS (osteosarcoma) cells were split and plated on day 1. After overnight attachment to the tissue culture plate, cells were treated with either DMSO (0), 37 nM, 111 nM, 333 nM, 1 μM, or 3 μM Compound 246 for 72 hours. Cells were collected, washed and lysed in RIPA buffer. After obtaining the protein concentration by BCA assay, lysates were boiled in loading buffer and run on SDS-PAGE. The gels were transferred to nitrocellulose membranes and blotted with antibodies raised against phosphor-PAK4, PAK4, phophos-beta-catenin, beta-catenin, GEF-H1, phospho-Akt, Akt, phospho-ERK1/2, ERK1/2, phospho-cofilin, cofilin, phospho-histone H3, histone H3, cyclin D1, Mcl-1, Bcl-2, p21, survivin, caspase 8, caspase 3, PARP, and beta-actin (loading control).
In another experiment, U2OS (osteosarcoma) cells were split and plated on day 1. After overnight attachment to the tissue culture plate, cells were treated with DMSO (Ct), 0.5 μM, or 5 μM of Compound 124, 369, 226, 246, or 907 for 72 hours. Cells were collected, washed and lysed in RIPA buffer. After obtaining the protein concentration by BCA assay, lysates were boiled in loading buffer and run on SDS-PAGE. The gels were transferred to nitrocellulose membranes and blotted with antibodies raised against phophos-beta-catenin, cyclin D1, PAK4, phospho-cofilin, and beta-actin (loading control).

SMILES	pIC50 (MS751 cells)	pIC50 (Z138 cells)	pIC50 (3T3 cells)	PAK4 total protein [1]	phosphorylation of PAK4 signaling proteins beta-catenin and cofilin [1]
[2H]C1([2H])c2cc(-c3ccc(C(=O)N4CCOCC4)cc3)cc(Cl)c2OC1CNC(=O)/C=C/c1ccc(N)nc1 (centres unmarked) [Compound 365, (E)-3-(6-aminopyridin-3-yl)-N-((7-chloro-3,3-dideutero-5-(4-(morpholine-4-carbonyl)phenyl)-2,3-dihydrobenzofuran-2-yl)methyl)acrylamide]	> 7.00	5.30 to 7.00	> 7.00		
CC1(F)CN(C(=O)c2ccc(-c3cc(Cl)c4c(c3)CC(/C=C/C(=O)NCc3ccc(N)nc3)O4)cc2)C1 (centres unmarked) [Compound 366, (E)-N-((6-aminopyridin-3-yl)methyl)-3-(7-chloro-5-(4-(3-fluoro-3-methylazetidine-1-carbonyl)phenyl)-2,3-dihydrobenzofuran-2-yl)acrylamide]	< 4.52	< 4.52	5.30 to 7.00		
CC1(C)COCCN1C(=O)c1ccc(-c2cc(Cl)c3c(c2)CC(/C=C/C(=O)NCc2ccc(N)nc2)O3)cc1 (centres unmarked) [Compound 367, (E)-N-((6-aminopyridin-3-yl)methyl)-3-(7-chloro-5-(4-(3,3-dimethylmorpholine-4-carbonyl)phenyl)-2,3-dihydrobenzofuran-2-yl)acrylamide]	> 7.00	> 7.00	5.30 to 7.00		
CC1(C)COCCN1C(=O)c1ccc(-c2cc(Cl)c3c(c2)CC(/C=C/C(=O)NCc2ccc(N)nc2)O3)nc1 (centres unmarked) [Compound 368, (E)-N-((6-aminopyridin-3-yl)methyl)-3-(7-chloro-5-(5-(3,3-dimethylmorpholine-4-carbonyl)pyridin-2-yl)-2,3-dihydrobenzofuran-2-yl)acrylamide]	> 7.00	> 7.00	5.30 to 7.00		
CC(=O)c1ccc(-c2cc(Cl)c3c(c2)CC(CNC(=O)CCc2cccnc2)O3)s1 (centres unmarked) [Compound 369, N-((5-(5-Acetylthiophen-2-yl)-7-chloro-2,3-dihydrobenzofuran-2-yl)methyl)-3-(pyridin-3-yl)propanamide]	5.30 to 7.00	5.30 to 7.00	4.52 to 5.30	decrease	decreases in phosphorylation
CC(=O)c1ccc(-c2cc(Cl)c3c(c2)CC(CNC(=O)CCc2cnc(N)c(Br)c2)O3)s1 (centres unmarked) [Compound 371, N-((5-(5-acetylthiophen-2-yl)-7-chloro-2,3-dihydrobenzofuran-2-yl)methyl)-3-(6-amino-5-bromopyridin-3-yl)propanamide]	4.52 to 5.30	4.52 to 5.30	< 4.52		
Nc1ccc(/C=C/C(=O)NCC2Cc3cc(-c4ccc(C(=O)N5CCOCC5)c(F)c4F)cc(Cl)c3O2)cn1 (centres unmarked) [Compound 901, (E)-3-(6-aminopyridin-3-yl)-N-((7-chloro-5-(2,3-difluoro-4-(morpholine-4-carbonyl)phenyl)-2,3-dihydrobenzofuran-2-yl)methyl)acrylamide]	> 7.00	> 7.00	5.30 to 7.00		
Nc1ccc(/C=C/C(=O)NCC2Cc3cc(-c4c(F)cc(C(=O)N5CCOCC5)cc4F)cc(Cl)c3O2)cn1 (centres unmarked) [Compound 902, (E)-3-(6-aminopyridin-3-yl)-N-((7-chloro-5-(2,6-difluoro-4-(morpholine-4-carbonyl)phenyl)-2,3-dihydrobenzofuran-2-yl)methyl)acrylamide]	> 7.00	> 7.00	5.30 to 7.00		
Nc1ccc(/C=C/C(=O)NCC2Cc3cc(-c4ccc(C(=O)N5CCOCC5)c(F)c4)cc(Cl)c3O2)cn1 (centres unmarked) [Compound 903, (E)-3-(6-aminopyridin-3-yl)-N-((7-chloro-5-(3-fluoro-4-(morpholine-4-carbonyl)phenyl)-2,3-dihydrobenzofuran-2-yl)methyl)acrylamide]	> 7.00	> 7.00	5.30 to 7.00		
Nc1ccc(/C=C/C(=O)NCC2Cc3cc(-c4ccc(C(=O)NNc5cnccn5)cc4)cc(Cl)c3O2)cn1 (centres unmarked) [Compound 904, (E)-3-(6-aminopyridin-3-yl)-N-((7-chloro-5-(4-(2-(pyrazin-2-yl) hydrazine-1-carbonyl)phenyl)-2,3-dihydrobenzofuran-2-yl)methyl)acrylamide]	> 7.00	> 7.00	5.30 to 7.00		
Nc1ccc(/C=C/C(=O)NCC2Cc3cc(-c4ccc(C(=O)CN5CCOCC5)cc4)cc(Cl)c3O2)cn1 (centres unmarked) [Compound 906, (E)-3-(6-Aminopyridin-3-yl)-N-((7-chloro-5-(4-(2-morpholinoacetyl)phenyl)-2,3-dihydrobenzofuran-2-yl)methyl)acrylamide]	> 7.00	> 7.00	5.30 to 7.00		
Nc1ccc(/C=C/C(=O)NCC2Cc3c(-c4cc(F)c(C(=O)N5CCOCC5)c(F)c4)ccc(Cl)c3O2)cn1 (centres unmarked) [Compound 908, (E)-3-(6-Aminopyridin-3-yl)-N-((7-chloro-4-(3,5-difluoro-4-(morpholine-4-carbonyl)phenyl)-2,3-dihydrobenzofuran-2-yl)methyl)acrylamide]	> 7.00	> 7.00	5.30 to 7.00		
Nc1ccc(/C=C/C(=O)NCC2Cc3cc(-c4ccc(C(=O)C(=O)N5CCOCC5)cc4)cc(Cl)c3O2)cn1 (centres unmarked) [Compound 909, (E)-3-(6-aminopyridin-3-yl)-N-((7-chloro-5-(4-(2-morpholino-2-oxoacetyl)phenyl)-2,3-dihydrobenzofuran-2-yl)methyl)acrylamide]	> 7.00	> 7.00	5.30 to 7.00		
Nc1ccc(/C=C/C(=O)NCC2Cc3c(-c4ccc(C(=O)N5CCOCC5)nc4)ccc(Cl)c3O2)cn1 (centres unmarked) [Compound 910, (E)-3-(6-aminopyridin-3-yl)-N-((7-chloro-4-(6-(morpholine-4-carbonyl)pyridin-3-yl)-2,3-dihydrobenzofuran-2-yl)methyl)acrylamide]	5.30 to 7.00	> 7.00	4.52 to 5.30		
Nc1ccc(/C=C/C(=O)NCC2Cc3c(-c4ccc(C(=O)N5CCOCC5)cc4F)ccc(Cl)c3O2)cn1 (centres unmarked) [Compound 911, (E)-3-(6-aminopyridin-3-yl)-N-((7-chloro-4-(2-fluoro-4-(morpholine-4-carbonyl)phenyl)-2,3-dihydrobenzofuran-2-yl)methyl)acrylamide]	> 7.00	> 7.00	5.30 to 7.00		
Nc1ccc(/C=C/C(=O)NCC2Cc3c(-c4ccc(C(=O)N5CCOCC5)cn4)ccc(Cl)c3O2)cn1 (centres unmarked) [Compound 912, (E)-3-(6-aminopyridin-3-yl)-N-((7-chloro-4-(5-(morpholine-4-carbonyl)pyridin-2-yl)-2,3-dihydrobenzofuran-2-yl)methyl)acrylamide]	5.30 to 7.00	> 7.00	5.30 to 7.00		
Nc1ccc(/C=C/C(=O)NCC2Cc3c(-c4cncc(C(=O)N5CCOCC5)c4)ccc(Cl)c3O2)cn1 (centres unmarked) [Compound 913, (E)-3-(6-aminopyridin-3-yl)-N-((7-chloro-4-(5-(morpholine-4-carbonyl)pyridin-3-yl)-2,3-dihydrobenzofuran-2-yl)methyl)acrylamide]	5.30 to 7.00	5.30 to 7.00	4.52 to 5.30		
Nc1ccc(/C=C/C(=O)NCC2Cc3cc(-c4ccc(S(=O)(=O)N5CCOCC5)cc4)cc(Cl)c3O2)cn1 (centres unmarked) [Compound 914, (E)-3-(6-aminopyridin-3-yl)-N-((7-chloro-5-(4-(morpholinosulfonyl)phenyl)-2,3-dihydrobenzofuran-2-yl)methyl)acrylamide]	> 7.00	> 7.00	5.30 to 7.00		
Nc1ccc(/C=C/C(=O)NCC2Cc3c(-c4cccc(C(=O)N5CCOCC5)c4)ccc(Cl)c3O2)cn1 (centres unmarked) [Compound 915, (E)-3-(6-aminopyridin-3-yl)-N-((7-chloro-4-(3-(morpholine-4-carbonyl)phenyl)-2,3-dihydrobenzofuran-2-yl)methyl)acrylamide]	> 7.00	> 7.00	5.30 to 7.00		
Nc1ccc(CCC(=O)NCC2Cc3cc(-c4ccc(C(=O)N5CCNCC5)cc4)cc(Cl)c3O2)cn1 (centres unmarked) [Compound 920, 3-(6-aminopyridin-3-yl)-N-((7-chloro-5-(4-(piperazine-1-carbonyl)phenyl)-2,3-dihydrobenzofuran-2-yl)methyl)propanamide]	< 4.52	< 4.52	< 4.52		
Nc1ccc(/C=C/C(=O)NCC2Cc3cc(-c4ccc(CC(=O)N5CCOCC5)cc4)cc(Cl)c3O2)cn1 (centres unmarked) [Compound 921, (E)-3-(6-aminopyridin-3-yl)-N-((7-chloro-5-(4-(2-morpholino-2-oxoethyl)phenyl)-2,3-dihydrobenzofuran-2-yl)methyl)acrylamide]	> 7.00	> 7.00	5.30 to 7.00		
